Measurements published in ChEMBL document CHEMBL1138724, “Synthesis and anticonvulsant activity of new 2-substituted-5- [2-(2-fluorophenoxy)phenyl]-1,3,4-oxadiazoles and 1,2,4-triazoles” (Bioorg Med Chem Lett, 2004).

Key:
[1] = tested on: Mus musculus; assay: Effective dose required to protect mice against convulsion induced by a lethal dose of PTZ (100 mg/kg) was determined; type: functional
[2] = tested on: Mus musculus; assay: Effective dose required to protect mice against convulsion induced electroshock was determined by MES test in the presence of 10 mg/kg flumazenil
[3] = species on record: Mus musculus; assay: Effective dose required to protect mice against convulsion induced electroshock was determined by MES test; type: functional
[4] = Lethal dose in mice; type: toxicity; conditions: mouse, in vivo
[5] = tested on: Mus musculus; assay: Effective dose required to protect mice against convulsion induced by a lethal dose of PTZ (100 mg/kg) was determined in the presence of 10 mg/kg flumazenil; type: functional

Row | Structure (SMILES) | ED50 [1] | ED50 [2] | ED50 [3] | LD50 [4] | ED50 [5]
1 | CN1C(=O)CN=C(c2ccccc2)c2cc(Cl)ccc21 [DIAZEPAM] | 1.87 mg/kg | 1.57 mg/kg | – | – | –
2 | Fc1ccccc1Oc1ccccc1-c1n[nH]c(S)n1 | > 100 mg/kg | – | 92 mg/kg | > 300 mg/kg | –
3 | Fc1ccccc1Oc1ccccc1-c1nnc(S)o1 | > 100 mg/kg | – | 43.1 mg/kg | > 300 mg/kg | –
4 | Oc1nnc(-c2ccccc2Oc2ccccc2F)o1 | – | – | > 100 mg/kg | > 300 mg/kg | –
5 | CCOc1n[nH]c(-c2ccccc2Oc2ccccc2F)n1 | 84.8 mg/kg | – | – | > 300 mg/kg | –
6 | CSc1nnc(-c2ccccc2Oc2ccccc2F)o1 | – | – | > 100 mg/kg | > 300 mg/kg | –
7 | Nc1nnc(-c2ccccc2Oc2ccccc2F)o1 | – | – | 9.57 mg/kg | > 300 mg/kg | 39.2 mg/kg
